Test results from the supplement of paper PMC11451515.

System: P12-Ichikawa
Test: cell viability relative to DMSO control; higher = less cytotoxic
Details: 48 h
Summary of the method: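 In 1536-well plates, 5 μl of leukemia cells were seeded per well: 500 cells/well for NOMO1 or SEM and 1000 cells/well for P12-Ichikawa. Each line had first been adapted for at least four passages in each medium. Library compounds in DMSO were pin-dosed at 11 threefold concentrations between 47 μM and 0.79 nM, and CellTiter-Glo One luminescence was read after 48 h at 37°C. Viability is a per-plate percentage relative to DMSO wells, with cell-free wells as background.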

[1] = HPLM + 10% dialyzed FBS, 0.000781 µM
[2] = HPLM + 10% dialyzed FBS, 0.00234 µM
[3] = HPLM + 10% dialyzed FBS, 0.00702 µM
[4] = HPLM + 10% dialyzed FBS, 0.0211 µM
[5] = HPLM + 10% dialyzed FBS, 0.0632 µM
[6] = HPLM + 10% dialyzed FBS, 0.19 µM
[7] = HPLM + 10% dialyzed FBS, 0.569 µM
[8] = HPLM + 10% dialyzed FBS, 1.71 µM
[9] = HPLM + 10% dialyzed FBS, 5.12 µM
[10] = HPLM + 10% dialyzed FBS, 15.4 µM
[11] = HPLM + 10% dialyzed FBS, 46.1 µM
[12] = RPMI 5 mM glucose + 10% FBS, 0.000781 µM
[13] = RPMI 5 mM glucose + 10% FBS, 0.00234 µM
[14] = RPMI 5 mM glucose + 10% FBS, 0.00702 µM
[15] = RPMI 5 mM glucose + 10% FBS, 0.0211 µM
[16] = RPMI 5 mM glucose + 10% FBS, 0.0632 µM
[17] = RPMI 5 mM glucose + 10% FBS, 0.19 µM
[18] = RPMI 5 mM glucose + 10% FBS, 0.569 µM
[19] = RPMI 5 mM glucose + 10% FBS, 1.71 µM
[20] = RPMI 5 mM glucose + 10% FBS, 5.12 µM
[21] = RPMI 5 mM glucose + 10% FBS, 15.4 µM
[22] = RPMI 5 mM glucose + 10% FBS, 46.1 µM
[23] = RPMI 5 mM glucose + 10% dialyzed FBS, 0.000781 µM
[24] = RPMI 5 mM glucose + 10% dialyzed FBS, 0.00234 µM
[25] = RPMI 5 mM glucose + 10% dialyzed FBS, 0.00702 µM
[26] = RPMI 5 mM glucose + 10% dialyzed FBS, 0.0211 µM
[27] = RPMI 5 mM glucose + 10% dialyzed FBS, 0.0632 µM
[28] = RPMI 5 mM glucose + 10% dialyzed FBS, 0.19 µM
[29] = RPMI 5 mM glucose + 10% dialyzed FBS, 0.569 µM
[30] = RPMI 5 mM glucose + 10% dialyzed FBS, 1.71 µM
[31] = RPMI 5 mM glucose + 10% dialyzed FBS, 5.12 µM
[32] = RPMI 5 mM glucose + 10% dialyzed FBS, 15.4 µM
[33] = RPMI 5 mM glucose + 10% dialyzed FBS, 46.1 µM

| Structure (SMILES) | cell viability [1] | cell viability [2] | cell viability [3] | cell viability [4] | cell viability [5] | cell viability [6] | cell viability [7] | cell viability [8] | cell viability [9] | cell viability [10] | cell viability [11] | cell viability [12] | cell viability [13] | cell viability [14] | cell viability [15] | cell viability [16] | cell viability [17] | cell viability [18] | cell viability [19] | cell viability [20] | cell viability [21] | cell viability [22] | cell viability [23] | cell viability [24] | cell viability [25] | cell viability [26] | cell viability [27] | cell viability [28] | cell viability [29] | cell viability [30] | cell viability [31] | cell viability [32] | cell viability [33] |
| --- | --- | --- | --- | --- | --- | --- | --- | --- | --- | --- | --- | --- | --- | --- | --- | --- | --- | --- | --- | --- | --- | --- | --- | --- | --- | --- | --- | --- | --- | --- | --- | --- | --- |
| CNC[C@H](O)c1ccc(O)c(O)c1 | 96.9% | 101% | 94.8% | 94.6% | 102% | 93.9% | 90.2% | 90.9% | 91.7% | 85.7% | 85.8% | 102% | 97.3% | 88.6% | 99.3% | 97.9% | 94.9% | 91.7% | 89.5% | 93.5% | 89.6% | 89.9% | 87.9% | 92.6% | 91% | 87.3% | 90.6% | 92.3% | 81.9% | 85.1% | 82% | 78.9% | 78.2% |
| OC[C@H]1OCC(O1)[N@@]2C=CC(N)=NC2=O (stereo partly specified) | 121% | 118% | 113% | 121% | 112% | 118% | 117% | 107% | 115% | 108% | 115% | 108% | 125% | 117% | 118% | 118% | 117% | 118% | 107% | 104% | 101% | 103% | 116% | 121% | 115% | 109% | 114% | 113% | 109% | 106% | 105% | 104% | 105% |
| CC(C)C(=O)Oc1ccc(CO)cc1[C@H](CCN(C(C)C)C(C)C)c1ccccc1 | 92% | 87.1% | 89.2% | 85.3% | 90.1% | 99% | 75.7% | 69.3% | 86.2% | 76.8% | 81.8% | 81.1% | 82.5% | 85.6% | 83.4% | 83.2% | 83.9% | 86.1% | 84.9% | 81.5% | 80.7% | 83.4% | 78.9% | 76.3% | 82.9% | 80.1% | 87% | 84.2% | 79.7% | 78.8% | 77.1% | 73.1% | 78.1% |
| N#Cc1c(NC(=O)c2cccc3ccccc23)sc2c1CCCC2 | 121% | 122% | 126% | 123% | 136% | 132% | 82.4% | 21.6% | 18.2% | 28.2% | 27.4% |  |  |  |  |  |  |  |  |  |  |  |  |  |  |  |  |  |  |  |  |  |  |
| COC1=C2OC(=O)\C=C/C2=CC3=C1OC=C3 | 118% | 113% | 115% | 116% | 112% | 107% | 108% | 102% | 99.7% | 61.3% | 84.6% | 118% | 117% | 117% | 111% | 109% | 110% | 113% | 110% | 109% | 55.6% | 86.8% | 115% | 117% | 119% | 125% | 108% | 109% | 105% | 100% | 101% | 60.2% | 74.4% |
| CNC(=O)c1ccc(N2C(=S)N(c3ccc(C#N)c(C(F)(F)F)c3)C(=O)C23CCC3)cc1F | 86.5% | 92.3% | 101% | 9.68% | 108% | 101% | 97% | 103% | 103% | 107% | 102% | 88% | 86.8% | 101% | 13.1% | 94.9% | 98% | 102% | 99.6% | 99.3% | 103% | 106% | 75.4% | 87.7% | 88.6% | 24.7% | 97.7% | 96.6% | 92.7% | 91% | 97.8% | 96.7% | 98.5% |
| CC/1=C(/N2[C@H](SC1)[C@H](NC(=O)[C@H](N)\C3=C\C\C=C/C3)C2=O)C(O)=O | 96.8% | 117% | 116% | 121% | 126% | 115% | 111% | 126% | 128% | 120% | 113% | 99.5% | 91.8% | 110% | 116% | 103% | 120% | 117% | 119% | 120% | 124% | 122% | 111% | 112% | 116% | 112% | 118% | 118% | 118% | 117% | 125% | 133% | 125% |
| O=C(c1ccc(Nc2nccc(-c3cc4ccccc4s3)n2)cc1)N1CCC(N2CCCC2)CC1 | 115% | 109% | 116% | 112% | 120% | 107% | 103% | 98.8% | 99.5% | 67.7% | 3.26% | 117% | 125% | 119% | 117% | 114% | 107% | 112% | 112% | 105% | 82.9% | 6.91% | 113% | 119% | 115% | 119% | 123% | 106% | 113% | 107% | 101% | 63.8% | 7% |
| C[N]1C=C(C2=C1C=CC=C2)\C3=C(\C(=O)NC3=O)C4=C5CC(CN)CC[N]5C6=C4C=CC=C6 (stereo unspecified) | 103% | 105% | 106% | 113% | 98% | 116% | 110% | 108% | 106% | 84.2% | 60.3% | 97.2% | 108% | 101% | 111% | 90.5% | 117% | 120% | 115% | 94.6% | 66.2% | 45% | 119% | 116% | 119% | 113% | 113% | 129% | 129% | 119% | 109% | 83.4% | 45.7% |
| O=c1[nH]c2ccccc2n1C1CCN(Cc2ccc(-c3nc4cc5nc[nH]c5cc4nc3-c3ccccc3)cc2)CC1 | 109% | 125% | 116% | 125% | 117% | 132% | 115% | 102% | 105% | 109% | 115% | 111% | 102% | 110% | 111% | 115% | 114% | 106% | 85.4% | 104% | 109% | 106% | 121% | 114% | 114% | 121% | 114% | 110% | 105% | 91.1% | 103% | 96% | 107% |
| C[C@]12CCC(=O)C=C1CC[C@@H]1[C@@H]2CC[C@@]2(C)[C@H]1CC[C@]2(C)O | 105% | 110% | 105% | 91.5% | 104% | 107% | 109% | 104% | 102% | 89.6% | 86.4% | 94.7% | 93.3% | 105% | 79.6% | 104% | 102% | 104% | 94.9% | 97.9% | 92.1% | 79.8% | 94.6% | 101% | 100% | 80.5% | 94.8% | 100% | 91.7% | 106% | 97.5% | 87.7% | 88.1% |
| C/C=C1\C2C=C(C)CC1(N)c1ccc(=O)[nH]c1C2 (stereo unspecified) | 102% | 108% | 107% | 107% | 109% | 109% | 107% | 104% | 96.3% | 106% | 79.2% | 105% | 110% | 112% | 106% | 113% | 101% | 98.3% | 91.2% | 98.9% | 98.7% | 92.8% | 110% | 98% | 108% | 102% | 94.9% | 107% | 98.4% | 97.1% | 88.5% | 95.2% | 90.9% |
| NC(=O)c1ccc(I)c([N+](=O)[O-])c1 | 117% | 126% | 124% | 115% | 130% | 139% | 133% | 134% | 132% | 128% | 125% |  |  |  |  |  |  |  |  |  |  |  |  |  |  |  |  |  |  |  |  |  |  |
| CC(C)C1=C(O)C=C(O)C(=C1)C/2=N/NC(=O)N2C3=CC4=C(C=C3)[N](C)C=C4 | 119% | 118% | 118% | 117% | 116% | 78.1% | 51.7% | 54.2% | 49% | 47.4% | 45.3% | 119% | 123% | 125% | 112% | 110% | 51% | 41% | 41.3% | 41.8% | 41.6% | 38.6% | 112% | 123% | 127% | 122% | 116% | 48.7% | 45.6% | 42.6% | 44.4% | 41.5% | 39% |
| CCn1c(-c2nonc2N)nc2cnc(Oc3cccc(NC(=O)c4ccc(OCCN5CCOCC5)cc4)c3)cc21 | 110% | 107% | 111% | 111% | 112% | 109% | 112% | 116% | 94.9% | 77% | 70.1% | 106% | 122% | 107% | 115% | 107% | 113% | 98.5% | 102% | 89.5% | 66.3% | 55.4% | 104% | 116% | 127% | 117% | 115% | 124% | 117% | 102% | 102% | 74.9% | 69.5% |
